tested on: TNFα; assay: Cot Monocyte TNFα Cell Based Assay; conditions: Homo sapiens, Monocyte, read-out: EC50 TNF, LPS-stimulated human monocytes, TNFα

With Cc1ncccc1[C@H](Nc1cc(Cl)c2ncc(C#N)c(Nc3ccc(F)c(Cl)c3)c2c1)c1cn(COC(=O)C(C)(C)C)nn1 [Example 274, (S)-(4-(((8-chloro-4-((3-chloro-4-fluorophenyl)amino)-3-cyanoquinolin-6-yl)amino)(2-methylpyridin-3-yl)methyl)-1H-1,2,3-triazol-1-yl)methyl pivalate] as the compound, how does the EC50 read?
Its EC50 is 370 nM.

Which EC50 does the source give for N#Cc1cnc2c(Cl)cc(N[C@@H](c3cscn3)c3cn(C4CCNCC4)nn3)cc2c1Nc1ccc(F)c(Cl)c1 [Example 354, (S)-8-chloro-4-((3-chloro-4-fluorophenyl)amino)-6-(((1-(piperidin-4-yl)-1H-1,2,3-triazol-4-yl)(thiazol-4-yl)methyl)amino)-quinoline-3-carbonitrile] here?
Its EC50 is 983 nM.

Which EC50 does the source give for Cc1nc(Cl)ccc1[C@H](Nc1cc(Cl)c2ncc(C#N)c(Nc3cnc(F)c(F)c3)c2c1)c1c[nH]nn1 [Example 169, (S)-8-chloro-6-(((6-chloro-2-methylpyridin-3-yl)(1H-1,2,3-triazol-4-yl)methyl)amino)-4-((5,6-difluoropyridin-3-yl)amino)quinoline-3-carbonitrile] here?
The EC50 was 1220 nM.

For CC(C)n1cc([C@@H](Nc2cc(Cl)c3ncc(C#N)c(Nc4ccc(F)c(Cl)c4)c3c2)c2csc(N3CCOCC3)n2)nn1 [Example 301, (S)-8-chloro-4-((3-chloro-4-fluoro-phenyl)amino)-6-(((1-isopropyl-1H-1,2,3-triazol-4-yl)(2-morpholinothiazol-4-yl)methyl)amino)quinoline-3-carbonitrile], which EC50 is on record?
The EC50 was 414 nM.

With Cn1ncc2cccc([C@H](Nc3cc(C#N)c4ncc(C#N)c(NCC(C)(C)C)c4c3)c3cn(C4(C(F)(F)F)CC4)nn3)c21 [Example 526, (S)-6-(((1-methyl-1H-indazol-7-yl)(1-(1-(trifluoromethyl)cyclopropyl)-1H-1,2,3-triazol-4-yl)methyl)amino)-4-(neopentylamino)quinoline-3,8-dicarbonitrile] as the compound, how does the EC50 read?
Its EC50 is 73 nM.

Which EC50 does the source give for Cc1nc(F)ccc1[C@H](Nc1cc(Cl)c2ncc(C#N)c(NCC(C)(C)CO)c2c1)c1cn(C2(C(F)F)CC2)nn1 [Example 746, (S)-8-chloro-6-(((1-(1-(difluoromethyl)cyclopropyl)-1H-1,2,3-triazol-4-yl)(6-fluoro-2-methylpyridin-3-yl)methyl)amino)-4-((3-hydroxy-2,2-dimethylpropyl)amino)quinoline-3-carbonitrile] here?
Its EC50 is 178 nM.

For CCN1CCC(n2cc([C@@H](Nc3cc(Cl)c4ncc(C#N)c(Nc5ccc(F)c(Cl)c5)c4c3)c3cccs3)nn2)CC1 [Example 380, (R)-8-chloro-4-((3-chloro-4-fluoro-phenyl)amino)-6-(((1-(1-ethylpiperidin-4-yl)-1H-1,2,3-triazol-4-yl)(thiophen-2-yl)methyl)amino)quinoline-3-carbonitrile], which EC50 is on record?
The EC50 was 609 nM.

N#Cc1cnc2c(Cl)cc(N[C@H](c3c[nH]nn3)c3cccnc3Cl)cc2c1Nc1cnc(F)c(F)c1 [Example 161, (S)-8-chloro-6-(((2-chloropyridin-3-yl)(1H-1,2,3-triazol-4-yl)methyl)amino)-4-((5,6-difluoropyridin-3-yl)amino)quinoline-3-carbonitrile] was tested. Which EC50 did it give?
The EC50 was 1670 nM.

With COc1ncccc1[C@H](Nc1cc(Cl)c2ncc(C#N)c(NCC(C)(C)C)c2c1)c1cn(C2(C(F)(F)F)CC2)nn1 [Example 782, (S)-8-chloro-6-(((2-methoxypyridin-3-yl)(1-(1-(trifluoromethyl)cyclopropyl)-1H-1,2,3-triazol-4-yl)methyl)amino)-4-(neopentylamino)quinoline-3-carbonitrile] as the compound, how does the EC50 read?
Its EC50 is 177 nM.

Which EC50 does the source give for Cn1ccc2c([C@H](Nc3cc(C#N)c4ncc(C#N)c(NCC(C)(C)C)c4c3)c3cn(C4(C(F)(F)F)CC4)nn3)ccnc21 [Example 664, (S)-6-(((1-methyl-1H-pyrrolo[2,3-b]pyridin-4-yl)(1-(1-(trifluoromethyl)cyclopropyl)-1H-1,2,3-triazol-4-yl)methyl)amino)-4-(neopentylamino)quinoline-3,8-dicarbonitrile] here?
The EC50 was 154 nM.

With Cn1ncc2c([C@H](Nc3cc(Cl)c4ncc(C#N)c(NCC(C)(C)C)c4c3)c3cn(C4(C(F)(F)F)CC4)nn3)cccc21 [Example 543, (S)-8-chloro-6-(((1-methyl-1H-indazol-4-yl)(1-(1-(trifluoromethyl)cyclopropyl)-1H-1,2,3-triazol-4-yl)methyl)amino)-4-(neopentylamino)quinoline-3-carbonitrile] as the compound, how does the EC50 read?
Its EC50 is 422 nM.

How did the EC50 turn out when Cc1ncoc1[C@H](Nc1cc(Cl)c2ncc(C#N)c(NCC(C)(C)C)c2c1)c1cn(C2(C(F)F)CC2)nn1 [Example 630, (R)-8-chloro-6-(((1-(1-(difluoromethyl)cyclopropyl)-1H-1,2,3-triazol-4-yl)(4-methyloxazol-5-yl)methyl)amino)-4-(neopentylamino)quinoline-3-carbonitrile] was run?
The EC50 was 1000 nM.

How did the EC50 turn out when N#Cc1cnc2c(Cl)cc(N[C@@H](c3cnc(F)c(F)c3)c3c[nH]nn3)cc2c1Nc1cnc(F)c(F)c1 [Example 163, (S)-8-chloro-6-(((5,6-difluoropyridin-3-yl)(1H-1,2,3-triazol-4-yl)methyl)amino)-4-((5,6-difluoropyridin-3-yl)amino)quinoline-3-carbonitrile] was run?
Its EC50 is 4140 nM.

For CC(C)n1cc([C@@H](Nc2cc(Cl)c3ncc(C#N)c(Nc4ccc(F)c(Cl)c4)c3c2)c2cocn2)nn1 [Example 312, (S)-8-chloro-4-((3-chloro-4-fluorophenyl)amino)-6-(((1-isopropyl-1H-1,2,3-triazol-4-yl)(oxazol-4-yl)methyl)amino)quinoline-3-carbonitrile], which EC50 is on record?
The EC50 was 1240 nM.

For CC(C)(C)CNc1c(C#N)cnc2c(Cl)cc(N[C@@H](c3ccc(Cl)nc3)c3cn(C4(C(F)(F)F)CC4)nn3)cc12 [Example 793, (S)-8-chloro-6-(((6-chloropyridin-3-yl)(1-(1-(trifluoromethyl)cyclopropyl)-1H-1,2,3-triazol-4-yl)methyl)amino)-4-(neopentylamino)quinoline-3-carbonitrile], which EC50 is on record?
The EC50 was 782 nM.

Cc1ncoc1[C@H](Nc1cc(Cl)c2ncc(C#N)c(Nc3ccc(F)c(Cl)c3)c2c1)c1cn(C2CCN(C(C)(C)C)CC2)nn1 [Example 265, (R)-6-(((1-(1-(tert-butyl)piperidin-4-yl)-1H-1,2,3-triazol-4-yl)(4-methyloxazol-5-yl)methyl)amino)-8-chloro-4-((3-chloro-4-fluorophenyl)amino)quinoline-3-carbonitrile] was tested. Which EC50 did it give?
Its EC50 is 426 nM.

With CC[C@@H](Nc1c(C#N)cnc2c(Cl)cc(N[C@@H](c3cccnc3)c3cn([C@@H](C)CF)nn3)cc12)c1ccccc1 [Example 181, 8-chloro-6-(((S)-(1-((S)-1-fluoropropan-2-yl)-1H-1,2,3-triazol-4-yl)(pyridin-3-yl)methyl)amino)-4-(((R)-1-phenylpropyl)amino)quinoline-3-carbonitrile] as the compound, how does the EC50 read?
The EC50 was 92 nM.

CCN1CCC(n2cc([C@@H](Nc3cc(Cl)c4ncc(C#N)c(Nc5ccc(F)c(Cl)c5)c4c3)c3ccc4cccnc4c3)nn2)CC1 [Example 65, (S)-8-chloro-4-((3-chloro-4-fluorophenyl)amino)-6-(((1-(1-ethylpiperidin-4-yl)-1H-1,2,3-triazol-4-yl)(quinolin-7-yl)methyl)amino)quinoline-3-carbonitrile] was tested. Which EC50 did it give?
Its EC50 is 538 nM.

With CC(C)n1ccc2c([C@H](Nc3cc(Cl)c4ncc(C#N)c(NCC(C)(C)C)c4c3)c3cn(C4(C)CC4)nn3)cccc2c1=O [Example 774, (S)-8-chloro-6-(((2-isopropyl-1-oxo-1,2-dihydroisoquinolin-5-yl)(1-(1-methylcyclopropyl)-1H-1,2,3-triazol-4-yl)methyl)amino)-4-(neopentyl-amino)quinoline-3-carbonitrile] as the compound, how does the EC50 read?
The EC50 was 40 nM.

How did the EC50 turn out when Cc1nc(F)ccc1[C@H](Nc1cc(F)c2ncc(C#N)c(NCC(C)(C)C)c2c1)c1cn(C2(C#N)CC2)nn1 [Example 485, (S)-6-(((1-(1-cyanocyclopropyl)-1H-1,2,3-triazol-4-yl)(6-fluoro-2-methylpyridin-3-yl)methyl)amino)-8-fluoro-4-(neopentyl-amino)quinoline-3-carbonitrile] was run?
Its EC50 is 29 nM.

Which EC50 does the source give for CCN1CCC(n2cc([C@@H](Nc3cc(Cl)c4ncc(C#N)c(Nc5ccc(F)c(Cl)c5)c4c3)c3ccc(Cl)s3)nn2)CC1 [Example 382, (R)-8-chloro-4-((3-chloro-4-fluoro-phenyl)amino)-6-(((5-chlorothiophen-2-yl)(1-(1-ethylpiperidin-4-yl)-1H-1,2,3-triazol-4-yl)methyl)amino)quinoline-3-carbonitrile] here?
The EC50 was 768 nM.

Cn1ncc2c([C@H](Nc3cc(Cl)c4ncc(C#N)c(NCC(C)(C)C)c4c3)c3cn(Cc4c(F)cccc4F)nn3)cccc21 [Example 655, (S)-8-chloro-6-(((1-(2,6-difluorobenzyl)-1H-1,2,3-triazol-4-yl)(1-methyl-1H-indazol-4-yl)methyl)amino)-4-(neopentylamino)quinoline-3-carbonitrile] was tested. Which EC50 did it give?
The EC50 was 104 nM.

same assay, conditions: Homo sapiens, Monocyte, read-out: EC50 TNF, LPS-stimulated human monocytes, TNFα TR-FRET

How did the EC50 turn out when COc1ccc([C@H](Nc2cc(C#N)c3ncc(C#N)c(NCC(C)(C)C)c3c2)c2cn(C3(C(F)(F)F)CC3)nn2)cn1 [Example 905, (S)-6-(((6-methoxypyridin-3-yl)(1-(1-(trifluoromethyl)cyclopropyl)-1H-1,2,3-triazol-4-yl)methyl)amino)-4-(neopentylamino)quinoline-3,8-dicarbonitrile] was run?
The EC50 was 212 nM.

same assay, conditions: read-out: EC50 TNF; LPS-stimulated human monocytes, TNFα

With Cc1nc(F)ccc1[C@H](Nc1cc(Cl)c2ncc(C#N)c(NCC(C)(C)C)c2c1)c1cn(CC(C)(C)C(F)(F)F)nn1 [Example 755] as the compound, how does the EC50 read?
The EC50 was 365 nM.

CC(C)(C)N1CCC(n2cc([C@@H](Nc3cc(Cl)c4ncc(C#N)c(Nc5ccc(F)c(Cl)c5)c4c3)c3ccc4ncsc4c3)nn2)CC1 [Example 63, (S)-6-((benzo[d]thiazol-6-yl(1-(1-(tert-butyl)pipcridin-4-yl)-1H-1,2,3-triazol-4-yl)methyl)amino)-8-chloro-4-((3-chloro-4-fluorophenyl)amino)quinoline-3-carbonitrile] was tested. Which EC50 did it give?
Its EC50 is 257 nM.

How did the EC50 turn out when Cc1cc(Cl)ncc1[C@H](Nc1cc(Cl)c2ncc(C#N)c(Nc3ccc(F)c(Cl)c3)c2c1)c1cn(C2CCN(C(C)(C)C)CC2)nn1 [Example 289] was run?
The EC50 was 837 nM.

same assay, conditions: second value of the cell IC50/EC50; LPS-stimulated human monocytes, TNFα by TR-FRET

How did the “IC50/EC50 [nM]: EC50 (TNFα)” value turn out when CCN1CCC(n2cc(CNc3cc(Cl)c4ncc(C#N)c(Nc5ccc(F)c(Cl)c5)c4c3)nn2)CC1 [Comparative Example 1, reference compound] was run?
The value was 310 nM.
